By IC50 is commonly meant the concentration at which inhibition is half-maximal. As a reminder, the inhibition is the relative decrease from the control value, in per cent.

Consider 6 molecules from patent US20170137410A1, “FUSED CYCLOALKYL-PYRIMIDINE COMPOUNDS AND USES THEREOF” (Medivation Technologies, Inc., priority 2014, published 2017).

What all share (format): biochemical
One test has as its target Trk A (Homo sapiens, UniProt P04629). As to the kind of experiment: HotSpot kinase assay against Trk A. To be noted: HotSpot 33P assay, ATP 10 μM-30 μM. The procedure:
(§1) Kinase assays were performed using test compounds against a panel of Trk kinases: Trk A; Trk B; and Trk C. Each compound was tested at a concentration of 0.1 μM in single duplicate mode against the three kinases. Compounds were prepared as 10 mM stock solutions in DMSO prior to use in the assay. The control compound, staurosporine, was tested at 10 concentrations with three-fold serial dilution starting at 20 μM. IC50 values and curve fits were obtained using Prism (GraphPad Software). IC50 values were determined for staurosporine for comparison.
(§2) The screening was performed using the “HotSpot” assay platform. The assay measures the conversion of a peptide substrate to ^33P-labelled phosphorylated product. Briefly, specific kinase/substrate pairs along with required cofactors were prepared in reaction buffer. Specifically, the substrate was prepared in reaction buffer (20 mM Hepes, pH 7.5; 10 mM MgCl2; 1 mM EGTA; 0.02% Brij35; 0.02 mg/mL BSA; 0.1 mM Na3VO4; 2 mM DTT; 1% DMSO), followed by delivery of any required cofactor to the resulting substrate solution. The corresponding kinase was delivered into the substrate solution and the reaction mixture was mixed gently. Compound was delivered into the reaction mixture, followed 15-20 min later by addition of a mixture of ATP (Sigma, St. Louis Mo.) and ^33P ATP (specific activity 0.01 μCi/μL final; Perkin Elmer, Waltham, Mass.) to a final concentration of 10 μM-30 μM to initiate the reaction. Reactions were carried out at RT for 120 min, followed by spotting of the reactions onto P81 ion exchange filter paper (Whatman #3698-915; Whatman Inc., Piscataway, N.J.). Unbound phosphate was removed by extensive washing of filters in 0.75% phosphoric acid. […] The percent of enzyme inhibition was calculated based on the percent of remaining kinase activity.

The target of another test is Trk C (Homo sapiens, UniProt Q16288). Description: HotSpot kinase assay against Trk C. To be noted: HotSpot 33P assay, ATP 10 μM-30 μM. The protocol:
as §1, §2

In a further test the target is T1, activated IGF-1R (Homo sapiens, UniProt P08069).
T1 construct: purchased Millipore 14-802
T1 sequence (P08069 31-1367): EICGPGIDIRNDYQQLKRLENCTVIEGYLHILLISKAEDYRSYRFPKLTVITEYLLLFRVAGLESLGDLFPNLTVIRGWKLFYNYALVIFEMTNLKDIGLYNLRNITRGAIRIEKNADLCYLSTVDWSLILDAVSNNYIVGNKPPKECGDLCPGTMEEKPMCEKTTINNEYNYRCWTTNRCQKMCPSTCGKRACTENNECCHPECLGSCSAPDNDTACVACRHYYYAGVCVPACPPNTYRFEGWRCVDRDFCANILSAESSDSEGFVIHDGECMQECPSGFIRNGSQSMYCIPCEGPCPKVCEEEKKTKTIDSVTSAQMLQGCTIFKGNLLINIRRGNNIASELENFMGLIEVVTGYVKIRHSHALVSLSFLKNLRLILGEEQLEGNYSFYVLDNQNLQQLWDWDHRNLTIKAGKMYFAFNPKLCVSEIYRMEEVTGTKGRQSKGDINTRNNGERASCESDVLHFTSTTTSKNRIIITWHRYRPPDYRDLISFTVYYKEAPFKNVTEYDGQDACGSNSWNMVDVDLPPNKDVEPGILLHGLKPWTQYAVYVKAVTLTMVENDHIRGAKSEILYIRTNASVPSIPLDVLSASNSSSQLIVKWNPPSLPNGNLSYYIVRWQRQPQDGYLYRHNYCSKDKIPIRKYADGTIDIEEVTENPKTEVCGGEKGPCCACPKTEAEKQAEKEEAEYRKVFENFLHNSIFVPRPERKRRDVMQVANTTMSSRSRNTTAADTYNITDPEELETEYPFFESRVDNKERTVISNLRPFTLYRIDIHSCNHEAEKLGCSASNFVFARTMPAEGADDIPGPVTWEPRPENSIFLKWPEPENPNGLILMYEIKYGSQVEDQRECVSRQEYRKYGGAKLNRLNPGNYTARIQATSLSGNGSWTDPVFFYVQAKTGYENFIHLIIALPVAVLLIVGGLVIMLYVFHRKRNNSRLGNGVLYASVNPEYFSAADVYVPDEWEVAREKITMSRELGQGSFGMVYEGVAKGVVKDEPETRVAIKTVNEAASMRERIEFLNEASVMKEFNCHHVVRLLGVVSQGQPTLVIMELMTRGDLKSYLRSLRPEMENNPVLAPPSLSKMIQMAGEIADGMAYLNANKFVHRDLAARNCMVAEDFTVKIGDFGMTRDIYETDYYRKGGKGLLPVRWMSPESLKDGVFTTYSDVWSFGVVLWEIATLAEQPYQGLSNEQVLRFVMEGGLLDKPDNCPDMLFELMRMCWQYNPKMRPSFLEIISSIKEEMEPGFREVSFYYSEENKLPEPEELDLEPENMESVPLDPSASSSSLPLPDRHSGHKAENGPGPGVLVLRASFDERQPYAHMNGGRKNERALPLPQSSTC
Description: In vitro IGF-1R enzymatic assay (ADP-Glo). To be noted: ATP 100 μM; for inhibition at 3 µM: compound 3 μM; for inhibition at 10 µM: compound 10 μM; for inhibition at 30 µM: compound 30 μM; for inhibition at 1 µM: compound 1 μM. The protocol:
(§3) Inhibition of IGF-1R and IR kinases by compounds described herein were tested. The IC50 values were measured in vitro using an ADP-Glo kinase assay Kit (Promega). For the IGF-1R assay, active recombinant IGF-1R (Millipore #14-802) was used at 1 ng/reaction, the substrate IGF-1R tide (Millipore #12-527) was used at 125 μM and ATP was used at 100 μM. For the IR assay, active recombinant IR (Millipore #14-803) was used at 1 ng/reaction, the substrate Axl tide (Millipore #12-516) was used at 125 μM and ATP at 50 μM. Kinase reactions in both assays were conducted at 30° C. for 20 min with increasing concentrations of the test compounds.
(§4) The assay results as the percent inhibition of binding are presented in Tables B2 and B3 for IGF-1R and IR respectively.
A general note: In ADP-Glo the light output rises with the ADP produced.

A further test addresses Trk B (Homo sapiens, UniProt Q16620). Description: HotSpot kinase assay against Trk B. The conditions noted are these: HotSpot 33P assay, ATP 10 μM-30 μM. The protocol: as §1, §2
Another test addresses T2, activated IR (Homo sapiens, UniProt P06213).
T2 construct: purchased Millipore 14-803
As to the kind of experiment: In vitro IR enzymatic assay (ADP-Glo). The conditions noted are these: ATP 50 μM; for inhibition at 1 µM: compound 1 μM; for inhibition at 3 µM: compound 3 μM; for inhibition at 30 µM: compound 30 μM. The protocol:
as §3, §4

T2 sequence (P06213 28-1382): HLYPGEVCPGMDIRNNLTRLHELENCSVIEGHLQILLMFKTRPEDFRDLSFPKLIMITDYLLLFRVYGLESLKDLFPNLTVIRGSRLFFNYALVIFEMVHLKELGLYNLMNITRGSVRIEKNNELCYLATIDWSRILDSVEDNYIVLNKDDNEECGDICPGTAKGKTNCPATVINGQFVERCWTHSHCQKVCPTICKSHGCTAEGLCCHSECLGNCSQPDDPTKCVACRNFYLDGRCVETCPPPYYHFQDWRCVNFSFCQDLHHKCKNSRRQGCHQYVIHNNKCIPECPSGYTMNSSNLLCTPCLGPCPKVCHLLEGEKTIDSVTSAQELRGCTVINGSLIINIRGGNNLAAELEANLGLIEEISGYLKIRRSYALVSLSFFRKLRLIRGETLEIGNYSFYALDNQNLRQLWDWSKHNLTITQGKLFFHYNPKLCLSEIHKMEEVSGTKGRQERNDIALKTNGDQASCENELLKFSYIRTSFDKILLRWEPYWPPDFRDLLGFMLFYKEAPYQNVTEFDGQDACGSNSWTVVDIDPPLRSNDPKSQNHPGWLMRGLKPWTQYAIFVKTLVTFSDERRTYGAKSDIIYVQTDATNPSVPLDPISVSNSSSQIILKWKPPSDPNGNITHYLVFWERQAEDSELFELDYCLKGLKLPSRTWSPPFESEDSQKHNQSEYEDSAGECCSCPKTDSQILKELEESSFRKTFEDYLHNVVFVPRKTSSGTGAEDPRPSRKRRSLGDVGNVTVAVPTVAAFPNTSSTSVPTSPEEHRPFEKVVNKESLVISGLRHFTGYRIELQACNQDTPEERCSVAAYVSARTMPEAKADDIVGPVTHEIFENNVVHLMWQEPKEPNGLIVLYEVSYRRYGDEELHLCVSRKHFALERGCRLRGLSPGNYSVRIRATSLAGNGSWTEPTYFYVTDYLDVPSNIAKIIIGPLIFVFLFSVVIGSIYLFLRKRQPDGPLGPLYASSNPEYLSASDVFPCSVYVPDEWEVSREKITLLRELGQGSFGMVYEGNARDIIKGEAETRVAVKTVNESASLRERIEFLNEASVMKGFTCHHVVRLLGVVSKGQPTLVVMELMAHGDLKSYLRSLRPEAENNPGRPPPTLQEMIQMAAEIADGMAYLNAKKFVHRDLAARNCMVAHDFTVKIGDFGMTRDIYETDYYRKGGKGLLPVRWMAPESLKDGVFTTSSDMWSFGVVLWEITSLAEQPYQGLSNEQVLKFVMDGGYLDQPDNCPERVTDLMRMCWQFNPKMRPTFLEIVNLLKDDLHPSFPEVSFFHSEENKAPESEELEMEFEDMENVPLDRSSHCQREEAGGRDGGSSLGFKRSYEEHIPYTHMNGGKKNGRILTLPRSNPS
Trk B, sequence (Q16620 32-822): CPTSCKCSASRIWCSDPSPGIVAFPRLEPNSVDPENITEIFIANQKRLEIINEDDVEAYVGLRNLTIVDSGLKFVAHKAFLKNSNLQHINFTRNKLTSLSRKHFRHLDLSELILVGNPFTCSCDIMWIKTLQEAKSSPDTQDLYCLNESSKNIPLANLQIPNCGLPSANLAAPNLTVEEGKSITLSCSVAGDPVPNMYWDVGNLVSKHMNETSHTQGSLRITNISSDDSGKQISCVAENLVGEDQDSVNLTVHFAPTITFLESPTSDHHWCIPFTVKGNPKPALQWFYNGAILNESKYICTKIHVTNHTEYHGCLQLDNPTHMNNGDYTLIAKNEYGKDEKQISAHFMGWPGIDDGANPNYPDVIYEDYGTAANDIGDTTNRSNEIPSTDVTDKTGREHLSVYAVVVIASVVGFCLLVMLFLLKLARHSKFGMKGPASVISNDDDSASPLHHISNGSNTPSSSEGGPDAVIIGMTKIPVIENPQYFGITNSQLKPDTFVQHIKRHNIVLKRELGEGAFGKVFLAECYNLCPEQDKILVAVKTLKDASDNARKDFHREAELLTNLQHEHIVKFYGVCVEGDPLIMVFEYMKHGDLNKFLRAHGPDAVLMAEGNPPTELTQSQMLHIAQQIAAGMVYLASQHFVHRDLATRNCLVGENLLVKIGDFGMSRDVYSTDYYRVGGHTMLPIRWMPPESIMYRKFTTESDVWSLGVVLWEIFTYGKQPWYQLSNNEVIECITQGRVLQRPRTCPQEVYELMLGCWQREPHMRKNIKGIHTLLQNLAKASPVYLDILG
Trk A, sequence (P04629 33-796): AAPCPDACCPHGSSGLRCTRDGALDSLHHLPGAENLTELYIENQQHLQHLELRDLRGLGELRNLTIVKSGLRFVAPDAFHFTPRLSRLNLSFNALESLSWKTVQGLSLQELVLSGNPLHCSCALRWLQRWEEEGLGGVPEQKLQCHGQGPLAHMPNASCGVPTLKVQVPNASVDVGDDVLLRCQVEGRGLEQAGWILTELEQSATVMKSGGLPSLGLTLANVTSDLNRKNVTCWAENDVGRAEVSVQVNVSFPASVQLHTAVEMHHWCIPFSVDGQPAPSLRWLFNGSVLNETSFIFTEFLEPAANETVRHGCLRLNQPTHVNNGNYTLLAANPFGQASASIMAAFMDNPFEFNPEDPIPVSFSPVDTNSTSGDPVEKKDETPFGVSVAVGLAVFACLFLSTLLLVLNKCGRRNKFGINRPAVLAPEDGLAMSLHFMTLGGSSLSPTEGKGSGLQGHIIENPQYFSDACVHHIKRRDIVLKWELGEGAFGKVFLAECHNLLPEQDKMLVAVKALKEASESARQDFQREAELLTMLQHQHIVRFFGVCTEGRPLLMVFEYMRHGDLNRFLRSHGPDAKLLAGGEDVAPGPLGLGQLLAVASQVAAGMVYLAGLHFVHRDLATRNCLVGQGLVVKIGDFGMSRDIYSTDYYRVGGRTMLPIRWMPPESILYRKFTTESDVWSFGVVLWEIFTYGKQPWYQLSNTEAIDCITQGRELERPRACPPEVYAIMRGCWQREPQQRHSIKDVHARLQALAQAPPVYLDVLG
Trk C, sequence (Q16288 32-839): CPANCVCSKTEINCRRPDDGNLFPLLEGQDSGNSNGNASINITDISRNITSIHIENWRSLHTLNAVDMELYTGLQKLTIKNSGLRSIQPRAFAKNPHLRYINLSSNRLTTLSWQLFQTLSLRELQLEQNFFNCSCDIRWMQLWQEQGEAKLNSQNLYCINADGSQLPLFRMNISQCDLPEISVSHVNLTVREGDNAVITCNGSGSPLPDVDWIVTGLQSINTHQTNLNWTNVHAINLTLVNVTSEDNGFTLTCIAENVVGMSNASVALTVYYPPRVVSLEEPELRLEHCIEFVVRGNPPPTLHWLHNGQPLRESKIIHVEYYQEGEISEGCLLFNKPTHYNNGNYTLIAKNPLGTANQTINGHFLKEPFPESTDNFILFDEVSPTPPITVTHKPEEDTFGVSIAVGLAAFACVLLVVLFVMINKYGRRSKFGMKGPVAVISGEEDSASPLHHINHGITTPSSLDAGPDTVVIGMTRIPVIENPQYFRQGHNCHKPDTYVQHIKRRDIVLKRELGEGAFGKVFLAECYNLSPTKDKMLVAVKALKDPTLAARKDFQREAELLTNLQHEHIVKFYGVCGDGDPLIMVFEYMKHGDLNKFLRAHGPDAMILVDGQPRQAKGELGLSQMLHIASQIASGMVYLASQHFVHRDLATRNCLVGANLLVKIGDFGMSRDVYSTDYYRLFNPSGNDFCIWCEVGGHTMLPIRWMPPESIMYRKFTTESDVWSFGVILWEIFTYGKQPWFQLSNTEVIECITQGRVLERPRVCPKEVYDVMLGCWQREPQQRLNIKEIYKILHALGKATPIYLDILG

In the case of `CC(C)c1cc(Nc2nc(N3CCC[C@H]3C(=O)N3CCCC3)nc3c2CCC3)n[nH]1` [138b, (S)-(1-(4-((5-isopropyl-1H-pyrazol-3-yl)amino)-6,7-dihydro-5H-cyclopenta[d]pyrimidin-2-yl)pyrrolidin-2-yl)(pyrrolidin-1-yl)methanone], the IC50 against Trk A turned out to be 0.141 µM; on Trk C it was 0.0014 µM; on Trk B it was 0.005 µM. Also, the figures for the inhibition at 3 µM against activated IGF-1R and on activated IR were 57% and 46%, respectively. In addition, on activated IGF-1R, the inhibition at 10 µM worked out at 80%. The inhibition at 30 µM against activated IGF-1R turned out to be 94%; against activated IR, 92%. Also, at activated IR, the inhibition at 1 µM is 21%.

Molecule `CC1(C)CCN(C(=O)[C@H]2CCCN2c2nc3c(c(Nc4cc(C5CCCC5)n[nH]4)n2)CCC3)CC1` [141a, (R)-(1-(4-((5-cyclopentyl-1H-pyrazol-3-yl)amino)-6,7-dihydro-5H-cyclopenta[d]pyrimidin-2-yl)pyrrolidin-2-yl)(4,4-dimethylpiperidin-1-yl)methanone] had a half-maximal inhibitory concentration (IC50) against Trk A of 0.135 µM. For the same molecule, at Trk C, the IC50 was 0.146 µM. In addition, at activated IGF-1R, the inhibition at 1 µM amounted to 27%, the inhibition at 3 µM was found to be 47%, the inhibition at 10 µM worked out at 74% and the inhibition at 30 µM is 96%. Further, on Trk B, the IC50 is 0.231 µM. For the same molecule, on activated IR, the inhibition at 1 µM is 17%, the inhibition at 3 µM stood at 47% and the inhibition at 30 µM turned out to be 97%.

Regarding `CC(C)c1cc(Nc2nc(N3CCC[C@@H]3C(=O)N3CCC(F)(F)C3)nc3c2CCC3)n[nH]1` [139a, (R)-(3,3-difluoropyrrolidin-1-yl)(1-(4-((5-isopropyl-1H-pyrazol-3-yl)amino)-6,7-dihydro-5H-cyclopenta[d]pyrimidin-2-yl)pyrrolidin-2-yl)methanone], the results for the 50% inhibitory concentration (IC50) against Trk A, at Trk C and at Trk B were 0.669 µM, 0.144 µM and 0.258 µM, respectively. The inhibition at 1 µM against activated IR was 42%.

`CN(C)C(=O)[C@@H]1CCCN1c1nc2c(c(Nc3cc(C4CCOCC4)[nH]n3)n1)CCC2` [91b, (S)-N,N-dimethyl-1-(4-(5-(tetrahydro-2H-pyran-4-yl)-1H-pyrazol-3-ylamino)-6,7-dihydro-5H-cyclopenta[d]pyrimidin-2-yl)pyrrolidine-2-carboxamide] registered a half-inhibitory concentration (IC50) on Trk A of 6.31 µM. The same molecule registered a 50% inhibitory concentration (IC50) against Trk C of 0.362 µM. Further, at activated IGF-1R, the inhibition at 1 µM is 0%, the inhibition at 3 µM was 4%, the inhibition at 10 µM was -2% and the inhibition at 30 µM came to 21%. Moreover, the IC50 at Trk B stood at 0.902 µM. On activated IR, the inhibition at 1 µM amounted to 1%, the inhibition at 3 µM is -2% and the inhibition at 30 µM was 7%.

With `CC(C)c1cc(Nc2nc(N3CCC[C@@H]3C(=O)N3CC(F)(F)C(F)(F)C3)nc3c2CCC3)n[nH]1` [112a, (R)-(1-(4-((5-isopropyl-1H-pyrazol-3-yl)amino)-6,7-dihydro-5H-cyclopenta[d]pyrimidin-2-yl)pyrrolidin-2-yl)(3,3,4,4-tetrafluoropyrrolidin-1-yl)methanone], the IC50 was 0.67 µM at Trk A, 0.279 µM against Trk C and 0.628 µM on Trk B. Also, the inhibition at 1 µM on activated IR was found to be 35%.

In the case of `CC(C)c1cc(Nc2nc(N3CCC[C@H]3C(=O)N3CCC(F)(F)C3)nc3c2CCC3)n[nH]1` [111b, (S)-(3,3-difluoropyrrolidin-1-yl)(1-(4-((5-isopropyl-1H-pyrazol-3-yl)amino)-6,7-dihydro-5H-cyclopenta[d]pyrimidin-2-yl)pyrrolidin-2-yl)methanone], the figures for the IC50 against Trk A, at Trk C and at Trk B were 0.053 µM, 0.0007 µM and 0.002 µM, respectively. At activated IR, the inhibition at 1 µM is 35%.
